The values below come from publication PMC8100071, “Lipid binding by the N-terminal motif mediates plasma membrane localization of Bordetella effector protein BteA” (The Journal of Biological Chemistry, 2021).

Where two headings read alike, the source gives them in different places.

The assay deals with T1, LRT (GST-tagged N-terminal LRT domain of BteA) (Bordetella pertussis, UniProt Q7VSD3).
T1 construct: gene BP0500; N-terminal lipid raft targeting (membrane localization) domain, aa 1-130 of 656; N-terminal GST tag (pGEX-6P1) kept; E. coli Rosetta 2
The experiment in a line: SPR steady state, immobilized liposomes. The class given is binding.

T1 sequence (Q7VSD3 entry or part of it): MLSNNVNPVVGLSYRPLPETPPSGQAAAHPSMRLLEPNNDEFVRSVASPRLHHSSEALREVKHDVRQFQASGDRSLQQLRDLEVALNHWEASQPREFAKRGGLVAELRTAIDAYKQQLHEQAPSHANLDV

Consider `CCCCCCCC/C=C\CCCCCCCC(=O)O[C@H](COC(=O)CCCCCCCCCCCCCCC)COP(=O)(O)O` [PA], for which the Kd (read-out: KD (apparent), PA/PC 5:95 (mol) liposomes, 100 nm, 50 mM Tris-HCl pH 7.4, 150 mM NaCl, 0.005% Tween-20, 25 °C, Kd in terms of protein concentration) turned out to be 492 ± 86 nM.

Molecule `CCCCCCCC/C=C\CCCCCCCC(=O)OC[C@H](COP(=O)(O)O[C@@H]1[C@H](O)[C@H](O)[C@@H](OP(=O)(O)O)[C@H](OP(=O)(O)O)[C@H]1O)OC(=O)CCCCCCC/C=C\CCCCCCCC` [PIP2] gave a Kd of 446 ± 65 nM.

As to `CCCCCCCC/C=C\CCCCCCCC(=O)O[C@H](COC(=O)CCCCCCCCCCCCCCC)COP(=O)(O)OC[C@H](N)C(=O)O` [PS], the Kd (read-out: KD (apparent), PS/PC 20:80 (mol) liposomes, 100 nm, 50 mM Tris-HCl pH 7.4, 150 mM NaCl, 0.005% Tween-20, 25 °C, Kd in terms of protein concentration, unit nM shared in the sentence, abstract gives ∼1.2 μM) stood at 1230 ± 245 nM.
